Values of other authors, collected in patent publication US6979682B2, “Platelet-activating factor antagonist inhibition of angiogenesis and tumor growth induced by basic fibroblast” (Board of Supervisors of Louisiana State University and …, priority 2001, dated 2005).
“Also recorded” adds a separate entry of the source.

Columns and labels:
[1] = tested on: PAF binding sites (microsomal intracellular membranes; synaptosomal plasma membrane); conditions: Marcheselli et al., 1990; cited from earlier work
[2] = tested on: angiogenesis stimulated by HGF, TNF-α or bFGF; conditions: cited from earlier work

Row | Structure (SMILES) | binding to the intracellular PAF binding sites [1] | angiogenesis stimulated by bFGF ([2]; Camussi et al., 1997, Montrucchio et al.) | angiogenesis stimulated by HGF ([2]; Camussi et al., 1997) | angiogenesis stimulated by TNF-α ([2]; Montrucchio et al.)
1 | CCCCCCCCCCCCCCCCCCNC(=O)OCC(COP(=O)([O-])OCC[n+]1ccsc1)OC (stereo not shown) [CV-3988, reference compound] | known to bind to the intracellular PAF binding sites |  |  | 
2 | Cc1nnc2n1-c1sc3c(c1C(c1ccccc1Cl)=NC2)CC(C(=O)N1CCOCC1)C3 (stereo not shown) [WEB 2170] |  | did not inhibit; also recorded: not inhibited | inhibited | inhibited
